From ChEMBL document CHEMBL1250444, “Nitric oxide activates TRP channels by cysteine S-nitrosylation” (Nat Chem Biol, 2006)
Where a chain is given by its changes, count along the chain named. Active and inactive are the calls of the source. The calls are words filed in the database; no cut-off is given here.

What was measured:
Format in all cases: cell-based
[1] = target: T1, Short transient receptor potential channel 5 (Homo sapiens) (UniProt Q9UL62); test: Induction of S-nitrosylation of TRPC5 in HEK cells assessed as inhibition of incorporation of DTNB-2Bio at 300 uM; details: HEK293
T1 sequence (whole entry): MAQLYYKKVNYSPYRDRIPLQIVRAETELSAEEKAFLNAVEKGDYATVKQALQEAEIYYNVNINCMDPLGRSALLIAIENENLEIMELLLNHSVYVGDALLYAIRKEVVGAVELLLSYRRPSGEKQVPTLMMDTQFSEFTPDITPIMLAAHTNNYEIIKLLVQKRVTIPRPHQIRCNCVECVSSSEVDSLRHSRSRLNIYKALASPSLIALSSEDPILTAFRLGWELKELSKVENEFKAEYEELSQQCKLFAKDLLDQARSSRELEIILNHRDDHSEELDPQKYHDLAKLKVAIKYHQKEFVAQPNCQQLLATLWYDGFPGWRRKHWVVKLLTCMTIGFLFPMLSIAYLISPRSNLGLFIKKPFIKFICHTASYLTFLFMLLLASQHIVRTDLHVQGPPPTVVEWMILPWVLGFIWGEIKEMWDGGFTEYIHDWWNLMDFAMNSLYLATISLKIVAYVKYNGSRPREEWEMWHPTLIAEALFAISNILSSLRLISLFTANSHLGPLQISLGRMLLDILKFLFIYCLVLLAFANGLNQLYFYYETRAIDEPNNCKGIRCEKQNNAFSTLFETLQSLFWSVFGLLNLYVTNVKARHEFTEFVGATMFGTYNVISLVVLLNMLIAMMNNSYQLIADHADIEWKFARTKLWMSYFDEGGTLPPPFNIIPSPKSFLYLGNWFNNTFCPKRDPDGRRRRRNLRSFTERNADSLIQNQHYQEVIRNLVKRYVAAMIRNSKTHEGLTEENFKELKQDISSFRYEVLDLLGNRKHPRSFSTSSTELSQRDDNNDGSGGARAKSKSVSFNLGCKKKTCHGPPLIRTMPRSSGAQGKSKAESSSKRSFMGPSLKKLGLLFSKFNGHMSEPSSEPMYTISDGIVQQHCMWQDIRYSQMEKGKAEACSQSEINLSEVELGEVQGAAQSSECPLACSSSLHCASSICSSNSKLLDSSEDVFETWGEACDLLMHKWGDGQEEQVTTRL

[2] = target: T2, Transient receptor potential cation channel subfamily V member 3 (Homo sapiens) (UniProt Q8NET8); test: Activation of TRPV3 in HEK cells assessed as increase in Ca2+ level from extracellular space at 300 uM; details: HEK293
T2 sequence (whole entry): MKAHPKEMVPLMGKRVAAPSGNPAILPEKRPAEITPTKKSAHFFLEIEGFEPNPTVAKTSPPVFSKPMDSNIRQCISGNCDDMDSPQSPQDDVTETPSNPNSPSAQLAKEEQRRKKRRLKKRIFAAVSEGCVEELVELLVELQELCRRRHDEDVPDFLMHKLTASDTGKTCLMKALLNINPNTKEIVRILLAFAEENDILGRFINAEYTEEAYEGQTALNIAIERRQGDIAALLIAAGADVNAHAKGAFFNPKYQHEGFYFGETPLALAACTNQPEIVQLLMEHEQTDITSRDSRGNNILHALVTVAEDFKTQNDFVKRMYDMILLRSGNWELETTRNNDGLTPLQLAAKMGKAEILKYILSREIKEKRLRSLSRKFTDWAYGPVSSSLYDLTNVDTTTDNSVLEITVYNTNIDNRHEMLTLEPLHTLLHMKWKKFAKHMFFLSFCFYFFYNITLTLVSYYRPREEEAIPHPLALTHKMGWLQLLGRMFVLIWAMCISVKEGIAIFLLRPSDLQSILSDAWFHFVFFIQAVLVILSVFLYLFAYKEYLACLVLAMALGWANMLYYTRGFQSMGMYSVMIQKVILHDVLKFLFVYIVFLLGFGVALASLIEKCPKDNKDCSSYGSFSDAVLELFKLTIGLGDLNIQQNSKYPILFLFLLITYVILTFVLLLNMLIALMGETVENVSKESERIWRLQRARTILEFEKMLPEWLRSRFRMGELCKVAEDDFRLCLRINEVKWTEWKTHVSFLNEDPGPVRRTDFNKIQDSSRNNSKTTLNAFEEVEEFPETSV

HEK293 = test: Induction of rat TRPV1 Cys621 mutant S-nitrosylation expressed in HEK cells assessed as increase in Ca2+ level from extracellular space at 0.1 to 1 mM
[3] = target: Transient receptor potential cation channel subfamily V member 1 (Rattus norvegicus) (UniProt O35433); test: Activation of rat TRPV1 expressed in HEK cells assessed as increase in Ca2+ level from extracellular space at 300 uM; details: HEK293
[4] = tested on: T3, Short transient receptor potential channel 5 (Homo sapiens), Q9UL62 [C553S]; test: Decrease in TRPC5 C553S mutant S-nitrosylation in HEK cells assessed as inhibition of incorporation of DTNB-2Bio at 30 uM relative to control; details: HEK293
T3 sequence (whole entry): T1 sequence (whole entry) with C553S

[5] = target: T2, Transient receptor potential cation channel subfamily V member 3 (Homo sapiens); test: Activation of TRPV3 in HEK cells assessed as increase in Ca2+ level from extracellular space at 10 uM; details: HEK293

Transient receptor potential cation channel subfamily V member 1 (Rattus norvegicus), sequence (O35433 whole entry): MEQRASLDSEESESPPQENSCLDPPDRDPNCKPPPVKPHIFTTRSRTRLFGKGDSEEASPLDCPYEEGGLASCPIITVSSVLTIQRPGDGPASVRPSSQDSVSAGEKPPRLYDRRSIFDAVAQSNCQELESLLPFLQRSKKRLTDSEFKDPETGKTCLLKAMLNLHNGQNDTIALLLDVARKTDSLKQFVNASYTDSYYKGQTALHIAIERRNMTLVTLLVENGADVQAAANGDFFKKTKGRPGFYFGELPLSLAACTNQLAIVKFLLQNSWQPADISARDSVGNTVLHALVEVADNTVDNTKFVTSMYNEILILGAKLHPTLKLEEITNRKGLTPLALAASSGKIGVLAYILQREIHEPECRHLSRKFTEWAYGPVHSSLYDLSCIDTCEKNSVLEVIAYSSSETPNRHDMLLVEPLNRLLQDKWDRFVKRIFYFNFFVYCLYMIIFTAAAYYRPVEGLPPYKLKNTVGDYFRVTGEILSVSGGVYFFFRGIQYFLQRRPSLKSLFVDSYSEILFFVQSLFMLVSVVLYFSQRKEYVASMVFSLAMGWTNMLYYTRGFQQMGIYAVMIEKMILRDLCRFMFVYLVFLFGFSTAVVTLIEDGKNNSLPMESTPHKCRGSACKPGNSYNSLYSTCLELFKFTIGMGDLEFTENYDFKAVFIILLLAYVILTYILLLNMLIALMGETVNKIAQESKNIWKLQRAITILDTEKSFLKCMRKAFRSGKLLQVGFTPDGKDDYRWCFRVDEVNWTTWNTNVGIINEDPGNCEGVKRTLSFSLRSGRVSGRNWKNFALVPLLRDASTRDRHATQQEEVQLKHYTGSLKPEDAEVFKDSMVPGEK

Row | Structure (SMILES) | Activity [1] | Activity [2] | Activity (HEK293) | Activity [3] | Activity [4] | Activity [5]
1 | CC(=O)N[C@@H](C(=O)O)C(C)(C)SN=O (racemic) | Active | Active | inactive | Active | – | –
2 | O=[N+]([O-])c1ccc(SSc2ccc([N+](=O)[O-])cn2)nc1 | – | – | – | – | Active | Active
